US10703765B2 (priority 2014, dated 2020)
Where a name gives a salt, the structure may show the parent alone.

Target: human σ1 receptor (Homo sapiens, UniProt Q99720)
Experiment: biochemical
Assay type: binding
Set-up: μ and σ1 dual binding: key to the marks not given beside the values
Settings: not given

Sequence of human σ1 receptor (Q99720 whole entry): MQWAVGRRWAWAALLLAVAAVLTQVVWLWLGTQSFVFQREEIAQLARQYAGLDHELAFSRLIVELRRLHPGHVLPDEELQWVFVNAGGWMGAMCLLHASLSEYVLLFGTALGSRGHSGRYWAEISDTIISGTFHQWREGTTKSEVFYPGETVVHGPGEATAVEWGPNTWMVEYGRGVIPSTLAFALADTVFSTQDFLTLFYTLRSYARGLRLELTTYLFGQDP

| Structure (SMILES) | Ki [nM] | μ and σ1 dual binding |
| --- | --- | --- |
| COc1ccccc1CCN1CCC2(CC1)CN(c1ccccc1F)C(=O)C(C(C)C)O2 (stereo not drawn) [Example 137, 4-(2-fluorophenyl)-2-isopropyl-9-(2-methoxyphenethyl)-1-oxa-4,9-diazaspiro[5.5]undecan-3-one hydrochloride] | < 100 | – |
| COCCC=C1OC2(CCN(CCc3ccccc3)CC2)CN(c2ccccc2F)C1=O [Example 142, 4-(2-fluorophenyl)-2-(3-methoxypropylidene)-9-phenethyl-1-oxa-4,9-diazaspiro[5.5]undecan-3-one] | < 500 | – |
| Cl.O=C1COC2(CCN(CCc3ccccc3)C2)CN1c1ccccc1 (stereo not drawn) [Example 149, 2-phenethyl-9-phenyl-6-oxa-2,9-diazaspiro[4.5]decan-8-one hydrochloride] | – | ++ |
| C[C@H]1OC2(CCN(C[C@H](O)c3ccccc3)CC2)CN(c2ccccc2)C1=O [Example 151a, (R)-9-((R)-2-hydroxy-2-phenylethyl)-2-methyl-4-phenyl-1-oxa-4,9-diazaspiro[5.5]undecan-3-one] | < 500 | – |
| C[C@H]1OC2(CCN(C[C@@H](O)c3ccccc3)CC2)CN(c2ccccc2)C1=O [Example 151b, (R)-9-((S)-2-hydroxy-2-phenylethyl)-2-methyl-4-phenyl-1-oxa-4,9-diazaspiro[5.5]undecan-3-one] | < 500 | – |
| C[C@@H]1OC2(CCN(C[C@@H](O)c3ccccc3)CC2)CN(c2ccccc2)C1=O [Example 151c, (S)-9-((S)-2-hydroxy-2-phenylethyl)-2-methyl-4-phenyl-1-oxa-4,9-diazaspiro[5.5]undecan-3-one] | < 500 | – |
| C[C@@H]1OC2(CCN(C[C@H](O)c3ccccc3)CC2)CN(c2ccccc2)C1=O [Example 151d, (S)-9-((R)-2-hydroxy-2-phenylethyl)-2-methyl-4-phenyl-1-oxa-4,9-diazaspiro[5.5]undecan-3-one] | < 500 | – |
| CC1OC2(CCN(CCc3ccccc3)CC2)CN(Cc2cccc(F)c2)C1=O (stereo not drawn) [Example 155, 4-(3-fluorobenzyl)-2-methyl-9-phenethyl-1-oxa-4,9-diazaspiro[5.5]undecan-3-one hydrochloride] | < 100 | – |
| CC1OC2(CCN(CCc3ccccc3)CC2)CN(Cc2ccccn2)C1=O (stereo not drawn) [Example 157, 2-methyl-9-phenethyl-4-(pyridin-2-ylmethyl)-1-oxa-4,9-diazaspiro[5.5]undecan-3-one hydrochloride] | < 100 | – |
| CC1OC2(CCN(CCc3ccccc3)CC2)CN(Cc2cccnc2)C1=O (stereo not drawn) [Example 159, 2-methyl-9-phenethyl-4-(pyridin-3-ylmethyl)-1-oxa-4,9-diazaspiro[5.5]undecan-3-one hydrochloride] | < 100 | – |
| CC1OC2(CCN(CCc3ccccc3)CC2)CN(Cc2nccs2)C1=O (stereo not drawn) [Example 160, 2-methyl-9-phenethyl-4-(thiazol-2-ylmethyl)-1-oxa-4,9-diazaspiro[5.5]undecan-3-one hydrochloride] | < 100 | – |
| CC1OC2(CCN(CCc3ccccc3)CC2)CN(CC2CCOCC2)C1=O.Cl (stereo not drawn) [Example 163, 2-methyl-9-phenethyl-4-((tetrahydro-2H-pyran-4-yl)methyl)-1-oxa-4,9-diazaspiro[5.5]undecan-3-one hydrochloride] | – | ++ |
| Cl.O=C1COC2(CCN(CCc3ccccc3)CC2)CN1Cc1nccn1Cc1ccccc1 [Example 168, 4-((1-benzyl-1H-imidazol-2-yl)methyl)-9-phenethyl-1-oxa-4,9-diazaspiro[5.5]undecan-3-one hydrochloride] | – | ++ |
| Cl.O=C1COC2(CCN(CCc3ccccc3)CC2)CN1CCc1ccccn1 [Example 169, 9-phenethyl-4-(2-(pyridin-2-yl)ethyl)-1-oxa-4,9-diazaspiro[5.5]undecan-3-one hydrochloride] | – | ++ |
| CC1OC2(CCN(CCc3ccccc3)CC2)CN(Cc2ccn(C)n2)C1=O (stereo not drawn) [Example 171, 2-methyl-4-((1-methyl-1H-pyrazol-3-yl)methyl)-9-phenethyl-1-oxa-4,9-diazaspiro[5.5]undecan-3-one] | < 500 | – |
| CC1OC2(CCN(CCc3ccccc3)CC2)CN(Cc2nccn2C)C1=O.Cl (stereo not drawn) [Example 172, 2-methyl-4-((1-methyl-1H-imidazol-2-yl)methyl)-9-phenethyl-1-oxa-4,9-diazaspiro[5.5]undecan-3-one hydrochloride] | – | ++ |
| CC1OC2(CCN(CCc3ccccc3)CC2)CN(Cc2cccc(C(F)(F)F)n2)C1=O (stereo not drawn) [Example 174, 2-methyl-9-phenethyl-4-((6-(trifluoromethyl)pyridin-2-yl)methyl)-1-oxa-4,9-diazaspiro[5.5]undecan-3-one hydrochloride] | < 100 | – |

Same assay, conditions: combined class from Ki-σ1 (human σ1 receptor, A1) and Ki-μ (human μ-opioid receptor, A2) radioligand binding

| Structure (SMILES) | μ and σ1 dual binding |
| --- | --- |
| O=C1COC2(CCN(CCc3ccccc3)CC2)CN1Cc1ccncc1 [Example 165, 9-phenethyl-4-(pyridin-4-ylmethyl)-1-oxa-4,9-diazaspiro[5.5]undecan-3-one] | ++ |

Same assay, conditions: read-out: μ and σ1 dual binding

| Structure (SMILES) | Ki [nM] |
| --- | --- |
| c1ccc(CN2CCOC3(CCN(CCc4ccccn4)CC3)C2)cc1 [Example 138, 4-benzyl-9-(2-(pyridin-2-yl)ethyl)-1-oxa-4,9-diazaspiro[5.5]undecane hydrochloride] | < 100 |
| CC(C)=C1OC2(CCN(CCc3ccccn3)CC2)CN(c2ccccc2F)C1=O [Example 139] | > 500 |
| CC1OC2(CCN(CCc3csc(NC(=O)OC(C)(C)C)n3)CC2)CN(c2ccccc2F)C1=O (stereo not drawn) [Example 140, tert-butyl (4-(2-(4-(2-fluorophenyl)-2-methyl-3-oxo-1-oxa-4,9-diazaspiro[5.5]undecan-9-yl)ethyl)thiazol-2-yl)carbamate] | > 500 |
| CC(C)=C1OC2(CCN(CCc3scnc3C)CC2)CN(c2ccccc2F)C1=O [Example 141, 4-(2-fluorophenyl)-9-(2-(4-methylthiazol-5-yl)ethyl)-2-(propan-2-ylidene)-1-oxa-4,9-diazaspiro[5.5]undecan-3-one hydrochloride] | < 500 |
| CCOC(=O)c1cccc(CCN2CCC3(CC2)CN(c2ccccc2F)C(=O)C(C)O3)c1 (stereo not drawn) [Example 143, ethyl 3-(2-(4-(2-fluorophenyl)-2-methyl-3-oxo-1-oxa-4,9-diazaspiro[5.5]undecan-9-yl)ethyl)benzoate] | > 500 |
| CC1OC2(CCN(CCC(=O)Nc3ccccc3)CC2)CN(c2ccccc2)C1=O (stereo not drawn) [Example 144, 3-(2-methyl-3-oxo-4-phenyl-1-oxa-4,9-diazaspiro[5.5]undecan-9-yl)-N-phenylpropanamide hydrochloride] | < 500 |
| CC1OC2(CCN(CCOc3cccnc3)CC2)CN(c2ccccc2)C1=O (stereo not drawn) [Example 145, 2-methyl-4-phenyl-9-(2-(pyridin-3-yloxy)ethyl)-1-oxa-4,9-diazaspiro[5.5]undecan-3-one hydrochloride] | > 500 |
| CC1OC2(CCN(CCN3CCCC3=O)CC2)CN(c2ccccc2)C1=O (stereo not drawn) [Example 146, 2-methyl-9-(2-(2-oxopyrrolidin-1-yl)ethyl)-4-phenyl-1-oxa-4,9-diazaspiro[5.5]undecan-3-one] | > 500 |
| CC1OC2(CCN(CCc3cn[nH]c3)CC2)CN(c2ccccc2)C1=O (stereo not drawn) [Example 147, 9-(2-(1H-pyrazol-4-yl)ethyl)-2-methyl-4-phenyl-1-oxa-4,9-diazaspiro[5.5]undecan-3-one] | > 500 |
| COc1ccc(CN2CC3(CCN(CCc4ccccc4F)CC3)OC3(CC3)C2=O)cc1 [Example 148, 8-(2-fluorophenethyl)-12-(4-methoxybenzyl)-4-oxa-8,12-diazadispiro[2.1.5.3]tridecan-13-one] | > 500 |
| CC1OC2(CCN(CCc3ccccc3)CC2)CN(Cc2ccccc2)C1=O (stereo not drawn) [Example 152, 4-benzyl-2-methyl-9-phenethyl-1-oxa-4,9-diazaspiro[5.5]undecan-3-one hydrochloride] | < 100 |
| O=C1COC2(CCN(CCc3ccccc3)CC2)CN1Cc1ccccc1 [Example 153, 4-benzyl-9-phenethyl-1-oxa-4,9-diazaspiro[5.5]undecan-3-one hydrochloride] | < 100 |
| CC1OC2(CCN(CCc3ccccc3)CC2)CN(Cc2ccccc2F)C1=O (stereo not drawn) [Example 154, 4-(2-fluorobenzyl)-2-methyl-9-phenethyl-1-oxa-4,9-diazaspiro[5.5]undecan-3-one hydrochloride] | < 100 |
| CC1OC2(CCN(CCc3ccccc3)CC2)CN(Cc2ccc(F)cc2)C1=O (stereo not drawn) [Example 158, 4-(4-fluorobenzyl)-2-methyl-9-phenethyl-1-oxa-4,9-diazaspiro[5.5]undecan-3-one hydrochloride] | < 100 |
| CC1OC2(CCN(CCc3ccccc3)CC2)CN(Cc2cncs2)C1=O (stereo not drawn) [Example 161, 2-methyl-9-phenethyl-4-(thiazol-5-ylmethyl)-1-oxa-4,9-diazaspiro[5.5]undecan-3-one hydrochloride] | < 500 |
| CC1OC2(CCN(CCc3ccccc3)CC2)CN(Cc2ccncc2)C1=O (stereo not drawn) [Example 162, 2-methyl-9-phenethyl-4-(pyridin-4-ylmethyl)-1-oxa-4,9-diazaspiro[5.5]undecan-3-one] | < 500 |
| CC1OC2(CCN(CCc3ccccc3)CC2)CN(Cc2cscn2)C1=O (stereo not drawn) [Example 164, 2-methyl-9-phenethyl-4-(thiazol-4-ylmethyl)-1-oxa-4,9-diazaspiro[5.5]undecan-3-one] | < 100 |
| COc1cccc(CN2CC3(CCN(CCc4ccccc4)CC3)OCC2=O)c1 [Example 166, 4-(3-methoxybenzyl)-9-phenethyl-1-oxa-4,9-diazaspiro[5.5]undecan-3-one hydrochloride] | < 500 |
| O=C1COC2(CCN(CCc3ccccc3)CC2)CN1Cc1cscn1 [Example 167, 9-phenethyl-4-(thiazol-4-ylmethyl)-1-oxa-4,9-diazaspiro[5.5]undecan-3-one hydrochloride] | < 100 |
| CC1OC2(CCN(CCc3ccccc3)CC2)CN(CC(=O)N2CCOCC2)C1=O (stereo not drawn) [Example 170, 2-methyl-4-(2-morpholino-2-oxoethyl)-9-phenethyl-1-oxa-4,9-diazaspiro[5.5]undecan-3-one hydrochloride] | > 500 |
| CC1OC2(CCN(CCc3ccccc3)CC2)CN(Cc2ncccc2F)C1=O (stereo not drawn) [Example 173, 4-((3-fluoropyridin-2-yl)methyl)-2-methyl-9-phenethyl-1-oxa-4,9-diazaspiro[5.5]undecan-3-one] | < 100 |
